From US9220700B2, “Cysteine for physiological injection” (Cornell University, priority 2009, dated 2015)

Assays:
[1] = tested on: neuromuscular blockade produced by CW002; conditions: previous study (Sunaga et al.); cited from earlier work
rats = assay: L-cysteine toxicology in rats; assay type: in vivo; conditions: conscious rats; bolus injections of 750 mg/kg intravenously
Description: This Example describes toxicology studies performed using FDA guidelines.

[2] = tested on: anesthetized male beagles; conditions: 100 mg/kg; previous work by the inventors; cited from earlier work
neuromuscular blockade = assay: Reversibility of neuromuscular blockade effects by administration of thiol compounds; assay type: in vivo; conditions: administration of thiol compounds such as cysteine (L or D) or glutathione
[3] = Natural pH, solubility and precipitation of cysteine solutions (general statements); assay type: physicochemical
[4] = tested on: neuromuscular blockade produced by CW002; assay: Reversal of CW002 neuromuscular blockade (recovery of muscle twitch) by cysteine in anesthetized beagles; assay type: in vivo; conditions: 0.08 mg/kg CW002, cysteine given 1 minute after CW002
Method: Three anesthetized male beagles received CW002. After 1 minute and complete loss of muscle twitch, D-cysteine was administered at dosages of 10, 20, 50 or 100 mg/kg. Each dose was given as a single experiment separated from other experiments by at least 7 days. The rate and time to complete recovery of muscle twitch in each animal was determined.

## N[C@@H](CS)C(=O)O [L-cysteine]
[1]
  Dose range effective for reversal of CW002 (previously described): 30 to 50 mg/kg
rats
  Clinical, biochemical, or histological evidence of organ toxicity: No animals exhibited clinical, biochemical, or histological evidence of organ toxicity
[2]
  Effect on blood pressure (previous work): modest increase in blood pressure

## COc1ccc(C[C@@H]2c3cc(OC)c(OC)cc3CC[N@@+]2(C)CCCOC(=O)/C=C\C(=O)OCCC[N@+]2(C)CCc3cc(OC)c(OC)cc3[C@H]2Cc2cc(OC)c(OC)c(OC)c2)cc1OC [CW 011]
Neuromuscular blockade
  Reversibility of neuromuscular blockade effects by thiol compounds: reversible

## N[C@@H](CS)C(=O)O [cysteine]
[3]; base form, read-out: Solubility of cysteine in its base form
  solubility: ≤ 50 mg/mL
[3]; pH values above 3
  Precipitation of cysteine solutions adjusted with sodium hydroxide: rapid cystine precipitation

## N[C@H](CS)C(=O)O [D-cysteine]
[4]
  Dose range effective for reversal of CW002: 30 to 50 mg/kg

## COc1ccc(CC2c3cc(OC)c(OC)cc3CC[N+]2(C)CCCOC(=O)/C=C/C(=O)OCCC[N+]2(C)CCc3cc(OC)c(OC)cc3C2Cc2ccc(OC)c(OC)c2)cc1OC (centres unmarked) [CW002]
Neuromuscular blockade
  Reversibility of neuromuscular blockade effects by thiol compounds: reversible
